Assay results published in patent publication US4550186A, “Binuclear copper (II) carboxylates formed from amine-carboxyboranes” (Duke University, priority 1983, dated 1985).

Target: T1, HMG CoA Reductase (Mus musculus, UniProt Q01237)
T1 construct: 10% homogenates of CF1 male mouse liver; from tissue; host or cells: CF1 male mouse liver, post-mitochondrial supernatant
T1 sequence (Q01237 1-887): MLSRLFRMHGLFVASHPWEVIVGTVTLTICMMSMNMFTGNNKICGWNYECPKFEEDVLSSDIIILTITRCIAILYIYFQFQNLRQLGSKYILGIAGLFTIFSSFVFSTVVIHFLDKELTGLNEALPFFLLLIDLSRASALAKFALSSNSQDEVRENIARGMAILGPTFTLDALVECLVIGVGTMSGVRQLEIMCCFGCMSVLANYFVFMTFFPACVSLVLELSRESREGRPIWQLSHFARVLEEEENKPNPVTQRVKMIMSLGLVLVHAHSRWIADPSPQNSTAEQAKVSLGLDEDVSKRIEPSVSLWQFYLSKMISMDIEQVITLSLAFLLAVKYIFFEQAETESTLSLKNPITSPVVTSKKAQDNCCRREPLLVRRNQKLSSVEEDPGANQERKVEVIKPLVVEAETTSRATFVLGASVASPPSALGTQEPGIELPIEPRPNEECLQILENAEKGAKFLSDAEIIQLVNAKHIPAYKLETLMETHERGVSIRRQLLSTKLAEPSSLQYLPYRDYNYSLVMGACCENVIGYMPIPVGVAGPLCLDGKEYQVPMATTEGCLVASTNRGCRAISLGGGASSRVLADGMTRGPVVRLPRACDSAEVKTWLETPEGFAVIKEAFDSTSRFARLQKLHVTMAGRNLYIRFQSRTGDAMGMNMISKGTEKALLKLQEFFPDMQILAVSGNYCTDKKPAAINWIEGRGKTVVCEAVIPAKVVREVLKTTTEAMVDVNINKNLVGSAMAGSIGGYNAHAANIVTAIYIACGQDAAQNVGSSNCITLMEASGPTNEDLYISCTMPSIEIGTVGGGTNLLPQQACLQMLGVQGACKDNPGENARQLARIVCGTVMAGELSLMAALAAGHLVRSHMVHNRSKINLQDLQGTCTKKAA
Assay: In vitro liver enzyme study: HMG CoA reductase
Type: biochemical
Conditions: in vitro CF1 liver
Procedure: In vitro enzymatic studies were determined using 10% homogenates of CF1 male mouse liver with 50-200 μM of test drugs. In vivo enzymatic studies were determined using 10% homogenates of liver from CF1 male mice obtained after administering the agents for 16 days at a dose ranging from 2.5-20 mg/kg/day intraperitoneally. The liver homogenates for both in vitro and in vivo studies were prepared in 0.25M sucrose and 0.001M (ethylenedinitrilo)tetraacetic acid. Acetyl coenzyme A synthetase and adenosine triphosphate dependent citrate lyase activities were determined spectrophotometrically at 540 nm as the hydroxylamate of acetyl coenzyme A formed after 30 min at 37° C. Mitochondrial citrate exchange was determined by the procedure of Robinson et al [Eur. J. Biochem., 216, 63 (1970)] using ^14 C-sodium bicarbonate (41 mCi/mmol) incorporated into mitochondrial ^14 C-citrate after isolating rat mitochondria (9000 g×10 min) from the homogenates. The exchanges of the ^14 C-citrate were determined after incubating the mitochondrial fraction which was loaded with labeled citrate and test drugs for 10 min. Then the radioactivity was measured in the mitochondrial and supernantant fractions in scintillation fluid and expressed as a percentage. Cholesterol side chain oxidation was determined by the method of Kritchevsky and Tepper [Artherosclerosis, 18, 93 (1973)] using (26-^14 C) cholesterol (50 mCi/mmol) and mitochondria isolated from rat liver homogenates. […] Fatty acid synthetase activity was determined by the method of Brady et al [J. Biol. Chem., 235, 3093 (1960)] using [2-^14 C] malonyl-coenzyme A (37.5 mCi/mmol) which was incorporated into newly synthesized fatty acids that were extracted with ether and counted. Acyl transferase activity was determined with glycerol-3phosphate [L-2-^3 H(N)] […] HCl and counted. Phosphatidate phosphohydrolase activity was measured as the inorganic phosphate released after 30 min from phosphatidic acid by the method of Mavis et al [J. Lipid Res., 19, 467 (1978)]. […]

Substance: {Cu[(CH3)3 N.BH2 CO2 ]2.(CH3)3 N.BH2 COOH} [Compound I]
- HMG CoA Reductase (50 μM): 102 ± 8 Percent Control
- HMG CoA Reductase (100 μM): 101 ± 9 Percent Control
- HMG CoA Reductase (200 μM): 105 ± 8 Percent Control
